Experimental data reported in patent publication US12390534B2, “Branched degradable polyethylene glycol binder” (NOF CORPORATION, priority 2019, dated 2025).
Bridge positions count the residues as written; N and C are the ends. Ends that are not written are not given here.

Tested on: plasma calcium concentration
Assay: Evaluation of physiological activity of PEGylated salmon calcitonin (blood calcium concentration)
Format: in vivo, mouse
Parameters: dose or concentration left out as unconfirmed
Conditions: Balb/c mice, sCT dose, plasma at 1, 6, 24 hr, compared to PBS group, FIG. 16
Description: The method for evaluating the physiological activity of a degradable polyethylene glycol derivative-bonded bio-related substance is not particular limited. For example, when the bio-related substance is insulin, blood sugar concentration is measured, and when it is calcitonin, blood calcium concentration is measured, by periodically collecting blood from the animal that received administration and measuring the substance in the blood by using an appropriate analytical instrument, and the like, based on which the evaluation can be performed. Specifically, in the case of insulin, a glucose measurement kit is used to monitor a decrease in glucose concentration after administration and, in the case of calcitonin, a decrease in calcium concentration after administration is monitored using a calcium measurement kit, based on which the evaluation can be performed.
The physiological activities of 4 groups of sCT-E(FG-200ME)2 which is SCT to which degradable polyethylene glycol derivative with a molecular weight of 40,000 is bonded and methoxy PEG 40 kDa-sCT, in which non-degradable methoxy PEG 40 kDa is bonded, each of which is obtained in Example 9, unmodified sCT, and PBS were comparatively evaluated in animal experiments. […]

Unmodified sCT: salmon calcitonin (sCT) with the amino acid sequence CSNLSTCVLGKLSQELHKLQTYPRTNTGSGTP (SEQ ID NO: 1) (CSNLSTCVLGKLSQELHKLQTYPRTNTGSGTP-NH2; disulfide 1-7; ends not checked; listed as Oncorhynchus keta)
plasma calcium concentration after administration (in words): showed an increase in calcium concentration from 6 hr after administration
